# Source: publication PMC4215984, “Structure of a Diguanylate Cyclase from Thermotoga maritima: Insights into Activation, Feedback Inhibition and Thermostability” (PLoS ONE, 2014)
# Columns and labels:
# [1] = target: T1, tDGC (GGDEF domain of TM1788) (Thermotoga maritima, UniProt Q9X2A8, R233A); assay: gel filtration; type: binding; settings: I-site; co-purified ligand
# T1 construct: gene TM_1788; GGDEF domain, residues 82-248 of 248, N-terminal His6 tag, pET28b (salt-bridge mutants in pET22b), E. coli BL21(DE3); dimer with c-di-GMP, monomer without nucleotide
# [2] = target: T2, tDGC (GGDEF domain of TM1788) (Thermotoga maritima, UniProt Q9X2A8, D177A); assay: gel filtration; type: binding; settings: I-site; co-purified ligand
# T2 construct: gene TM_1788; GGDEF domain, residues 82-248 of 248, N-terminal His6 tag, pET28b (salt-bridge mutants in pET22b), E. coli BL21(DE3); dimer with c-di-GMP, monomer without nucleotide
# [3] = target: T3, tDGC (GGDEF domain of TM1788) (Thermotoga maritima, UniProt Q9X2A8); assay: X-ray crystallography; type: binding; settings: feedback-inhibitory I-site (158-RxxD-161, secondary R115); co-purified ligand; inactive dimer crystals pH 6.5 (2.27 Å), active-like dimer crystals pH 4.0 (1.9 Å)
# T3 construct: gene TM_1788; GGDEF domain, residues 82-248 of 248, N-terminal His6 tag, pET28b (salt-bridge mutants in pET22b), E. coli BL21(DE3); dimer with c-di-GMP, monomer without nucleotide
# RocR = target: T4, RocR (Pseudomonas aeruginosa, UniProt Q9HX69); assay: hydrolysis of tDGC-bound c-di-GMP to pGpG, gel filtration and mass spectrometry; type: biochemical; settings: 25 mM Tris-HCl, 300 mM NaCl, 5% glycerol, 10 mM MgCl2, 2 h, room temperature
# T4 construct: recombinant RocR phosphodiesterase, expressed and purified as in cited earlier work
# [4] = target: T5, tDGC (GGDEF domain of TM1788) (Thermotoga maritima, UniProt Q9X2A8, E196A); assay: gel filtration; type: binding; settings: I-site; co-purified ligand
# T5 construct: gene TM_1788; GGDEF domain, residues 82-248 of 248, N-terminal His6 tag, pET28b (salt-bridge mutants in pET22b), E. coli BL21(DE3); dimer with c-di-GMP, monomer without nucleotide
# [5] = target: T3, tDGC (GGDEF domain of TM1788); assay: thermal unfolding by circular dichroism at […] nm; type: binding; settings: 20 mM Tris-HCl pH 8.5, 250 mM NaCl, 5% glycerol, 10 mM MgCl2, 0.8 mg/ml; co-purified ligand at I-site
# T3 sequence (Q9X2A8 entry or part of it): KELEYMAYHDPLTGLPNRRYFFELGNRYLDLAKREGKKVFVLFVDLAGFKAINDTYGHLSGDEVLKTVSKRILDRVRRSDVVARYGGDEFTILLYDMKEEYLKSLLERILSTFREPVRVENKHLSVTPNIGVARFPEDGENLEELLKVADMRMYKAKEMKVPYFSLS
# T4 sequence (Q9HX69 whole entry): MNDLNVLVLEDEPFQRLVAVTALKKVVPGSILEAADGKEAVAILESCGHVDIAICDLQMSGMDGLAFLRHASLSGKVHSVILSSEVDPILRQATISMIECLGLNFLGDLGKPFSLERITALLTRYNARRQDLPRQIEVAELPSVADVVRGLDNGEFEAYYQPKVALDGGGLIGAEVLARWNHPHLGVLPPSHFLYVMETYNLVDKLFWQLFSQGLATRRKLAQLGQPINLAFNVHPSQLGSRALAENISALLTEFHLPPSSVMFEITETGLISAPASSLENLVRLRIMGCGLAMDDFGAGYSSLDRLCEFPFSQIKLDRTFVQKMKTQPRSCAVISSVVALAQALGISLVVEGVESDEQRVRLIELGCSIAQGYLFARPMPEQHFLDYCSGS
# T1 sequence (Q9X2A8 entry or part of it R233A): as the sequence (Q9X2A8 entry or part of it) above, with R152A counted along it
# T2 sequence (Q9X2A8 entry or part of it D177A): as the sequence (Q9X2A8 entry or part of it) above, with D96A counted along it
# T5 sequence (Q9X2A8 entry or part of it E196A): as the sequence (Q9X2A8 entry or part of it) above, with E115A counted along it
smiles,measurement,setting,value
Nc1nc2c(ncn2[C@@H]2O[C@@H]3COP(=O)(O)O[C@H]4[C@@H](O)[C@H](n5cnc6c(=O)[nH]c(N)nc65)O[C@@H]4COP(=O)(O)O[C@H]3[C@H]2O)c(=O)[nH]1 [c-di-GMP],gel filtration,[1],"The three mutants eluted as dimers in gel filtration, indicating that c-di-GMP is bound"
same,gel filtration,[2],"The three mutants eluted as dimers in gel filtration, indicating that c-di-GMP is bound"
same,structure,[3],The wild type tDGC protein co-purifies with c-di-GMP and co-crystallizes without any extraneous addition of ligand
same,"hydrolysis of tDGC-bound c-di-GMP to pGpG, gel filtration and mass spectrometry",RocR,Following incubation of the wild type tDGC bound to c-di-GMP with RocR
same,gel filtration,[4],"The three mutants eluted as dimers in gel filtration, indicating that c-di-GMP is bound"
same,Tm (c-di-GMP-bound dimer; nucleotide-free monomer 85.5),[5],85.0 °C
